In patent US7329634B2, “3-Phenyl substituted 3-substituted-4ketolactams and ketolactones” (Bayer CropScience AG, priority 2003, dated 2008):

What was measured:
[1] = system: greenhouse red spider mite (Tetranychus urticae); assay: Tetranychus test (OP-resistant/spray treatment); type: in vivo; conditions: 100 ppm; spray treatment of bean leaf discs (Phaseolus vulgaris); OP-resistant
Protocol: Tetranychus Test (OP-Resistant/Spray Treatment)
• Solvents: 78 parts by weight of acetone • 1.6 parts by weight of dimethylformamide • Emulsifier: 0.5 part by weight of alkylaryl polyglycol ether
To produce a suitable preparation of active compound, 1 part by weight of active compound is mixed with the stated amounts of solvent and emulsifier, and the concentrate is diluted with emulsifier-containing water to the desired concentration.
Discs of the leaves of beans (Phaseolus vulgaris) which are infested by all stages of the greenhouse red spider mite (Tetranychus urticae) are sprayed with a preparation of active compound of the desired concentration.
After the desired period of time, the activity in % is determined. 100% means that all spider mites have been killed; 0% means that none of the spider mites have been killed.

Meloidogyne incognita = assay: Meloidogyne test; type: in vivo; conditions: 20 ppm; nematicidal action by formation of galls on lettuce roots; 100% = no galls
Protocol: • Solvents: 78 parts by weight of acetone • 1.5 parts by weight of dimethylformamide • Emulsifier: 0.5 part by weight of alkylaryl polyglycol ether
To produce a suitable preparation of active compound, 1 part by weight of active compound is mixed with the stated amounts of solvent and emulsifier, and the concentrate is diluted with water to the desired concentration.
Vessels are filled with sand, solution of active compound, Meloidogyne incognita egg/larvae suspension and lettuce seeds. The lettuce seeds germinate and the plants develop. On the roots, galls develop.
After the desired period of time, the nematicidal action is determined in % by the formation of galls. 100% means that no galls have been found; 0% means that the number of galls on the treated plants corresponds to that of the untreated control.

SMILES: CCc1cc(Br)cc(Br)c1C1(Cl)C(=O)NC(C)(C)C1=O (centres unmarked) [Ex. I-1-1]
- Kill rate in % after 4d [1]: 80%
- Effect in % after 14d (Meloidogyne incognita): 100%
